The target in one assay is T1, TYRO3 (Homo sapiens, UniProt Q06418).
T1 sequence (Q06418 41-890): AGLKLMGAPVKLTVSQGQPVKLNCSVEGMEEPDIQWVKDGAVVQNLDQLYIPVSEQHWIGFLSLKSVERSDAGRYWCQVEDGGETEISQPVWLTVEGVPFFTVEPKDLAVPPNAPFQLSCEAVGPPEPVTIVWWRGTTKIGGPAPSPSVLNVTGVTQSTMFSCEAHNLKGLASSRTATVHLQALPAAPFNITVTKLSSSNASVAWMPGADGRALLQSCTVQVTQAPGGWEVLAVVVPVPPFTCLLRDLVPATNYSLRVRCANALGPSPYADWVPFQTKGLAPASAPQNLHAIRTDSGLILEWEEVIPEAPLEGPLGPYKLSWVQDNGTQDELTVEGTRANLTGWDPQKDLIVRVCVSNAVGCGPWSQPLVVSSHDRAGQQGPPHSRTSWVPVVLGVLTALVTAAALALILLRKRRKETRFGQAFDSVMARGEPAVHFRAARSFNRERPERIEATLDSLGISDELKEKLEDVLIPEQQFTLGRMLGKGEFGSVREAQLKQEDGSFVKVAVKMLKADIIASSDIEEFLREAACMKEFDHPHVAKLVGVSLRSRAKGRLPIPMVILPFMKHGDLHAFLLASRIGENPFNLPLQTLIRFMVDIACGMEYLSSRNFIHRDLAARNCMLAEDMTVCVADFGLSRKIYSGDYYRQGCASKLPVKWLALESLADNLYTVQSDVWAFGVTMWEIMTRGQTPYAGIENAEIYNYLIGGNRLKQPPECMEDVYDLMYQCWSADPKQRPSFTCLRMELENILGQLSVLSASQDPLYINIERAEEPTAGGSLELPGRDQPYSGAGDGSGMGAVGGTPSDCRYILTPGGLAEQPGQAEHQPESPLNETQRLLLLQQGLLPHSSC
Kind of assay: TR-FRET kinase activity assay, TYRO3. Conditions: ATP at Km, 60 minutes. Format: biochemical. As for the experimental part:
IC50 values for compound inhibition of AXL, FLT3, MERTK and TYRO3 activity were determined using a TR-FRET activity assay. A peptide substrate with a fluorescent label is phosphorylated on a tyrosine by each enzyme, where the now phosphorylated product is bound by a Europium-labeled antibody specific to that phosphorylation site. The proximity between the antibody and the substrate gives a signal known as TR-FRET. As the enzyme is inhibited by compound, less phosphorylated peptide product is made, causing a decrease in overall signal.
Activity assays were performed in a 384-well, small volume, black microplates in an active enzyme volume of 10 uL and final developed volume of 20 uL. Final assay conditions are 50 mM HEPES pH 7.5, 10 mM MgCl2, 1 mM EGTA, 0.01% Brij 35 and 1 mM DTT, all at RT. Enzyme, substrate-labeled peptide and compound are mixed, and then the reaction is initiated with the addition of ATP at Km concentration for each enzyme. The reaction is allowed to run 60 minutes and then quenched with a 12.5 mM EDTA (ethylenediamine tetraacetic acid) solution. The plate is then developed with the addition of Europium-labeled antibody for a final volume of 20 uL and is then incubated for 30 minutes in darkness. Plates are read in a PHERASTAR® plate reader. Data are analyzed in GraphPad PRISM.
In general terms: Time-resolved FRET reads energy transfer from a long-lived donor to a nearby acceptor.

In the next assay the target is T2, MERTK (Homo sapiens, UniProt Q12866).
T2 sequence (Q12866 21-999): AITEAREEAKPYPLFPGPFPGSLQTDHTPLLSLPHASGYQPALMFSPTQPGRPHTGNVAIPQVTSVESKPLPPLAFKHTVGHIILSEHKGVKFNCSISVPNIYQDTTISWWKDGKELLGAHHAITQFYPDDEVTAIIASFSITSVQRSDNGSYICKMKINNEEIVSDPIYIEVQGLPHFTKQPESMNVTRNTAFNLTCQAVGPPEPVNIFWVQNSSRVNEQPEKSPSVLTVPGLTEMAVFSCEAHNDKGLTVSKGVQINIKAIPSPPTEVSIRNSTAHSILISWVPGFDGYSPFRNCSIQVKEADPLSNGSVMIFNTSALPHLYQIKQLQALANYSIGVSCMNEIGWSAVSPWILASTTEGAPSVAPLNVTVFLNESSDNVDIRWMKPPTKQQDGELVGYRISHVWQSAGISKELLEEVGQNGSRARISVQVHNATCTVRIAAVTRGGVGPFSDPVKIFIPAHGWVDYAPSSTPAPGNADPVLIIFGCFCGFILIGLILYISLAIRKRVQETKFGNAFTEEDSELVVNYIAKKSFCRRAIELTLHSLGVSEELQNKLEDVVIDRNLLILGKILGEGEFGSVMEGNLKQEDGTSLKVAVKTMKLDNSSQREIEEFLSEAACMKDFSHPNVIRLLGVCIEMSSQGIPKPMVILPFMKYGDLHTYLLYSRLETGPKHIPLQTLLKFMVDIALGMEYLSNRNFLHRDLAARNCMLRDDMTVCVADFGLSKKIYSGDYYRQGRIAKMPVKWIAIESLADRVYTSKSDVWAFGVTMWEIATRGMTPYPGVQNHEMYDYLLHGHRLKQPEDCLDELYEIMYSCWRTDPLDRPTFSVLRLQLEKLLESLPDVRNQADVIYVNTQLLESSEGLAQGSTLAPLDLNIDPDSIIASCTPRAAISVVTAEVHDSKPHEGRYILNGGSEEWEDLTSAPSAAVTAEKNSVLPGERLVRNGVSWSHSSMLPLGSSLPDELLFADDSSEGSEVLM
Kind of assay: TR-FRET kinase activity assay, MERTK. It counts as biochemical. Conditions: for IC50: TR-FRET activity assay, ATP at Km, 60 minutes, read-out: Mer IC50; for Mer/Flt3 ratio (FLT3 IC50/Mer IC50): ratio calculated as FLT3 IC50/Mer IC50. Put shortly:
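IC50s come from loss of TR-FRET between a Eu-labeled phospho-site antibody and fluorescent tyrosine-phosphorylated peptide. Kinase reactions, initiated with Km ATP, ran 60 min at RT at pH 7.5 before EDTA quench.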

Where only a bound is given, the exact number is not on record here.

Broadly, the IC50 is the midpoint of a concentration-inhibition curve. For the compound `CC[C@H](C)Nc1ncc2c(OC(CO)CO)ncc([C@H]3CC[C@H](O)CC3)c2n1` [Compound 241], the IC50 at TYRO3 was at most 100 nM. At MERTK, the IC50 was in the range of 100 to 1000 nM; the “Mer/Flt3 ratio (FLT3 IC50/Mer IC50)” value is “++ (a ratio of between 10 and 100)”.
On TYRO3, `COC[C@H](C)Nc1ncc2c(OC3CCOCC3)ncc(C3=CCC4(CC3)OCCO4)c2n1` [Compound 242] returned an IC50 of 100 to 1000 nM. Further, at MERTK, the IC50 was in the range of 100 to 1000 nM; the “Mer/Flt3 ratio (FLT3 IC50/Mer IC50)” value was “++ (a ratio of between 10 and 100)”.
Regarding `COC[C@H](C)Nc1ncc2c(OC3CCOCC3)ncc(C3CCC4(CC3)OCCO4)c2n1` [Compound 243], the values for the IC50 against TYRO3 and at MERTK were 1000 to 10000 nM and at most 100 nM, respectively. In addition, the “Mer/Flt3 ratio (FLT3 IC50/Mer IC50)” value at MERTK is listed as “+++ (a ratio of >100)”.
The matching figures for `CCc1ncc([C@H]2CC[C@H](O)CC2)c2nc(N[C@@H](C)CC)ncc12` [Compound 244]: 1000 to 10000 nM, at most 100 nM and “+++ (a ratio of >100)”.
The like results for `CC[C@H](C)Nc1ncc2c(OCC(F)(F)F)ncc([C@H]3CC[C@H](O)CC3)c2n1` [Compound 245] were, in that order, at most 100 nM, at most 100 nM and “+++ (a ratio of >100)”.
The like results for `CC[C@H](C)Nc1ncc2c(OC3CC(C)(C)NC(C)(C)C3)ncc([C@H]3CC[C@H](O)CC3)c2n1` [Compound 246] were, in that order, at most 100 nM, at most 100 nM and “+++ (a ratio of >100)”.
On TYRO3, `CC[C@H](C)Nc1ncc2c(OC3C[C@@H](C)O[C@@H](C)C3)ncc([C@H]3CC[C@H](O)CC3)c2n1` (stereo partly drawn) [Compound 247] yielded an IC50 of 100 to 1000 nM. Besides, at MERTK, the IC50 lay within 100 to 1000 nM; the “Mer/Flt3 ratio (FLT3 IC50/Mer IC50)” value was “++ (a ratio of between 10 and 100)”.
For `CC[C@H](C)Nc1ncc2c(=O)n(CC34CCC(N)(CC3)CC4)cc([C@H]3CC[C@H](O)CC3)c2n1` [Compound 251], on TYRO3, the IC50 is at most 100 nM. For the same compound, at MERTK, the IC50 was at most 100 nM and the “Mer/Flt3 ratio (FLT3 IC50/Mer IC50)” value is “+++ (a ratio of >100)”.
Consider `CCOc1ncc(CC2CCN(C)CC2)c2nc(N[C@@H](C)CC)ncc12` [Compound 253], for which the IC50 against TYRO3 lay in the range of 100 to 1000 nM. Also, at MERTK, the IC50 was 1000 to 10000 nM; the “Mer/Flt3 ratio (FLT3 IC50/Mer IC50)” value is “++ (a ratio of between 10 and 100)”.
For the compound `CCOc1ncc(CC2CCN(C(=O)OC(C)(C)C)CC2)c2nc(N[C@@H](C)CC)ncc12` [Compound 254], the IC50 on TYRO3 and at MERTK was 1000 to 10000 nM in each case. Besides, the “Mer/Flt3 ratio (FLT3 IC50/Mer IC50)” value on MERTK was “+ (a ratio of >2.0 and <10)”.
As to `CC[C@H](C)Nc1ncc2c(C)ncc([C@H]3CC[C@H](O)CC3)c2n1` [Compound 255], the IC50 against TYRO3 and on MERTK was at most 100 nM in each case. For the same compound, at MERTK, the “Mer/Flt3 ratio (FLT3 IC50/Mer IC50)” value is reported as “+++ (a ratio of >100)”.
With `CC[C@H](C)Nc1ncc2c(OCC34CCC(O)(CC3)CC4)ncc([C@H]3CC[C@H](O)CC3)c2n1` [Compound 256], the IC50 against TYRO3 was 100 to 1000 nM; at MERTK it was at most 100 nM. Further, the “Mer/Flt3 ratio (FLT3 IC50/Mer IC50)” value at MERTK is “+++ (a ratio of >100)”.
With `CC[C@H](C)Nc1ncc2c(=O)n(CC34CCC(O)(CC3)CC4)cc([C@H]3CC[C@H](O)CC3)c2n1` [Compound 257], the IC50 at TYRO3 and on MERTK was at most 100 nM each time. In addition, the “Mer/Flt3 ratio (FLT3 IC50/Mer IC50)” value on MERTK is listed as “+++ (a ratio of >100)”.
`COC[C@H](C)Nc1ncc2c(OC3CC(C)(C)N(C)C(C)(C)C3)ncc([C@H]3CC[C@H](O)CC3)c2n1` [Compound 259] registered an IC50 on TYRO3 of at most 100 nM. For the same compound, on MERTK, the IC50 was at most 100 nM and the “Mer/Flt3 ratio (FLT3 IC50/Mer IC50)” value is on record as “+++ (a ratio of >100)”.
As to `COC[C@H](C)Nc1ncc2c(O[C@H]3CC[C@H](O)CC3)ncc([C@H]3CC[C@H](O)CC3)c2n1` [Compound 260], on TYRO3, the IC50 was at most 100 nM. For the same compound, on MERTK, the IC50 was at most 100 nM and the “Mer/Flt3 ratio (FLT3 IC50/Mer IC50)” value was “+++ (a ratio of >100)”.
`CC[C@H](C)Nc1ncc2c(O[C@H]3CC[C@H](C(C)(C)O)CC3)ncc([C@H]3CC[C@H](O)CC3)c2n1` [Compound 261]: the IC50 against TYRO3 was 100 to 1000 nM. For the same compound, at MERTK, the IC50 was at most 100 nM; the “Mer/Flt3 ratio (FLT3 IC50/Mer IC50)” value is “++ (a ratio of between 10 and 100)”.
In the case of `O[C@H]1CC[C@H](c2cnc(OC3CCNCC3)c3cnc(Nc4ccccc4F)nc32)CC1` [Compound 262], the IC50 against TYRO3 was at most 100 nM. Further, on MERTK, the IC50 is at most 100 nM; the “Mer/Flt3 ratio (FLT3 IC50/Mer IC50)” value is “++ (a ratio of between 10 and 100)”.
Take `CC[C@H](C)Nc1ncc2c(=O)n(C[C@@H]3COCCN3C)cc([C@H]3CC[C@H](O)CC3)c2n1` [Compound 263]: the IC50 against TYRO3 is 100 to 1000 nM; on MERTK, at most 100 nM. For the same compound, at MERTK, the “Mer/Flt3 ratio (FLT3 IC50/Mer IC50)” value is “+++ (a ratio of >100)”.
The matching figures for `CC[C@H](C)Nc1ncc2c(=O)n(CC34CCC(N(C)C)(CC3)CC4)cc([C@H]3CC[C@H](O)CC3)c2n1` [Compound 264]: at most 100 nM, at most 100 nM and “+++ (a ratio of >100)”.
The matching figures for `CC[C@H](C)Nc1ncc2c(=O)n(C[C@H]3COCCN3C)cc([C@H]3CC[C@H](O)CC3)c2n1` [Compound 265]: 100 to 1000 nM, at most 100 nM and “+++ (a ratio of >100)”.
Compound `CC[C@H](C)Nc1ncc2c(=O)n([C@H]3CC[C@H](N(C)C)C3)cc([C@H]3CC[C@H](O)CC3)c2n1` [Compound 266] displayed an IC50 against TYRO3 of at most 100 nM. For the same compound, on MERTK, the IC50 was at most 100 nM and the “Mer/Flt3 ratio (FLT3 IC50/Mer IC50)” value was “+++ (a ratio of >100)”.
In the case of `CC[C@H](C)Nc1ncc2c(O[C@H]3CC[C@H](N(C)C)C3)ncc([C@H]3CC[C@H](O)CC3)c2n1` [Compound 267], the IC50 at TYRO3 is at most 100 nM. On MERTK, the IC50 was at most 100 nM and the “Mer/Flt3 ratio (FLT3 IC50/Mer IC50)” value was “+++ (a ratio of >100)”.
On TYRO3, `CC(C)(C)Nc1ncc2c(OC3CCNCC3)ncc([C@H]3CC[C@H](O)CC3)c2n1` [Compound 268] yielded an IC50 of 100 to 1000 nM. In addition, at MERTK, the IC50 is at most 100 nM and the “Mer/Flt3 ratio (FLT3 IC50/Mer IC50)” value is reported as “+++ (a ratio of >100)”.

These data come from patent publication US20200291018A1, “TAM KINASE INHIBITORS” (SYROS PHARMACEUTICALS, INC., priority 2017, published 2020).
